Where a name gives a salt, the structure may show the parent alone.
Assays:
Assay in all cases: Post-emergence efficacy, glasshouse spray test
Format in all cases: in vivo
[1] = tested on: Amaranthus palmeri (AMAPA); conditions: application rate 1000 g/Ha, evaluated after 13 days; for pest or weed control at 1000 g/ha: Amaranthus palmeri, post-emergence, 312 h, read-out: Control of weed species AMAPA after post-emergence application (100=total damage to plant; 0=no damage to plant)
Protocol: (§1) Seeds of a variety of test species were sown in standard soil in pots. After cultivation for 14 days (post-emergence) under controlled conditions in a glasshouse (at 24/16° C., day/night; 14 hours light; 65% humidity), the plants were sprayed with an aqueous spray solution derived from the dissolution of the technical active ingredient formula (I) in a small amount of acetone and a special solvent and emulsifier mixture referred to as IF50 (11.12% Emulsogen EL360 TM+44.44% N-methylpyrrolidone+44.44% Dowanol DPM glycol ether), to create a 50 g/l solution which was then diluted to required concentration using 0.25% or 1% Empicol ESC70 (Sodium lauryl ether sulphate)+1% ammonium sulphate as diluent. The test plants were then grown in a glasshouse under controlled conditions (at 24/16° C., day/night; 14 hours light; 65% humidity) and watered twice daily. After 13 days the test was evaluated (100=total damage to plant; 0=no damage to plant).
(§2) Ipomoea hederacea (IPOHE), Euphorbia heterophylla (EPHHL), Chenopodium album (CHEAL), Amaranthus palmeri (AMAPA), Lolium perenne (LOLPE), Digitaria sanguinalis (DIGSA), Eleusine indica (ELEIN), Echinochloa crus-galli (ECHCG), Setaria faberi (SETFA)

[2] = tested on: Chenopodium album (CHEAL); conditions: application rate 1000 g/Ha, evaluated after 13 days; for pest or weed control at 1000 g/ha: Chenopodium album, post-emergence, 312 h, read-out: Control of weed species CHEAL after post-emergence application (100=total damage to plant; 0=no damage to plant)
Protocol: as §1, §2

[3] = tested on: Digitaria sanguinalis (DIGSA); conditions: application rate 1000 g/Ha, evaluated after 13 days; for pest or weed control at 1000 g/ha: Digitaria sanguinalis, post-emergence, 312 h, read-out: Control of weed species DIGSA after post-emergence application (100=total damage to plant; 0=no damage to plant)
Protocol: as §1, §2

[4] = tested on: Echinochloa crus-galli (ECHCG); conditions: application rate 1000 g/Ha, evaluated after 13 days; for pest or weed control at 1000 g/ha: Echinochloa crus-galli, post-emergence, 312 h, read-out: Control of weed species ECHCG after post-emergence application (100=total damage to plant; 0=no damage to plant)
Protocol: as §1, §2

Eleusine indica (ELEIN) = conditions: application rate 1000 g/Ha, evaluated after 13 days; for pest or weed control at 1000 g/ha: Eleusine indica, post-emergence, 312 h, read-out: Control of weed species ELEIN after post-emergence application (100=total damage to plant; 0=no damage to plant)
Protocol: as §1, §2

[5] = tested on: Euphorbia heterophylla (EPHHL); conditions: application rate 1000 g/Ha, evaluated after 13 days; for pest or weed control at 1000 g/ha: Euphorbia heterophylla, post-emergence, 312 h, read-out: Control of weed species EPHHL after post-emergence application (100=total damage to plant; 0=no damage to plant)
Protocol: as §1, §2

[6] = tested on: Ipomoea hederacea (IPOHE); conditions: application rate 1000 g/Ha, evaluated after 13 days; for pest or weed control at 1000 g/ha: Ipomoea hederacea, post-emergence, 312 h, read-out: Control of weed species IPOHE after post-emergence application (100=total damage to plant; 0=no damage to plant)
Protocol: as §1, §2

Lolium perenne (LOLPE) = conditions: application rate 1000 g/Ha, evaluated after 13 days; for pest or weed control at 1000 g/ha: Lolium perenne, post-emergence, 312 h, read-out: Control of weed species LOLPE after post-emergence application (100=total damage to plant; 0=no damage to plant)
Protocol: as §1, §2

Setaria faberi (SETFA) = conditions: application rate 1000 g/Ha, evaluated after 13 days; for pest or weed control at 1000 g/ha: Setaria faberi, post-emergence, 312 h, read-out: Control of weed species SETFA after post-emergence application (100=total damage to plant; 0=no damage to plant)
Protocol: as §1, §2

Compound	pest or weed control at 1000 g/ha [1] [%]	pest or weed control at 1000 g/ha [2] [%]	pest or weed control at 1000 g/ha [3] [%]	pest or weed control at 1000 g/ha [4] [%]	pest or weed control at 1000 g/ha (Eleusine indica (ELEIN)) [%]	pest or weed control at 1000 g/ha [5] [%]	pest or weed control at 1000 g/ha [6] [%]	pest or weed control at 1000 g/ha (Lolium perenne (LOLPE)) [%]	pest or weed control at 1000 g/ha (Setaria faberi (SETFA)) [%]	Control of weed species AMAPA after post-emergence application (100=total damage to plant; 0=no damage to plant) [1]	Control of weed species CHEAL after post-emergence application (100=total damage to plant; 0=no damage to plant) [2]	Control of weed species DIGSA after post-emergence application (100=total damage to plant; 0=no damage to plant) [3]	Control of weed species ECHCG after post-emergence application (100=total damage to plant; 0=no damage to plant) [4]	Control of weed species ELEIN after post-emergence application (100=total damage to plant; 0=no damage to plant) (Eleusine indica (ELEIN))	Control of weed species EPHHL after post-emergence application (100=total damage to plant; 0=no damage to plant) [5]	Control of weed species IPOHE after post-emergence application (100=total damage to plant; 0=no damage to plant) [6]	Control of weed species LOLPE after post-emergence application (100=total damage to plant; 0=no damage to plant) (Lolium perenne (LOLPE))	Control of weed species SETFA after post-emergence application (100=total damage to plant; 0=no damage to plant) (Setaria faberi (SETFA))
COC(=O)CCC[n+]1ccc2ccccc2n1 [Compound A16, methyl 4-cinnolin-2-ium-2-ylbutanoate 2,2,2-trifluoroacetate]	50	70	40	50	60	40	10	20	50	–	–	–	–	–	–	–	–	–
O=C(O)CCC[n+]1ccc2ccccc2n1 [Compound A17]	–	–	–	–	–	–	–	–	–	70	60	40	30	60	40	30	40	40
N[C@@H](CCC[n+]1ccc2ccccc2n1)C(=O)[O-].O=C(O)C(F)(F)F [Compound A18]	–	–	–	–	–	–	–	–	–	60	100	40	30	90	20	30	30	20
O=S(=O)([N-]CC[n+]1ccc2ccccc2n1)C(F)(F)F [Compound A19, 2-cinnolin-2-ium-2-ylethyl(trifluoromethylsulfonyl)azanide]	10	10	10	10	0	20	30	0	10	–	–	–	–	–	–	–	–	–
c1ccc2n[n+](Cc3nnn[n-]3)ccc2c1 [Compound A20]	30	10	20	20	20	70	0	10	10	–	–	–	–	–	–	–	–	–
CN(C)S(=O)(=O)[N-]C(=O)C[n+]1ccc2ccccc2n1 [Compound A21, (2-cinnolin-2-ium-2-ylacetyl)-(dimethylsulfamoyl)azanide]	10	50	10	30	0	70	20	0	0	–	–	–	–	–	–	–	–	–
O=S(=O)([O-])CC[n+]1ccc2cccc(Cl)c2n1 [Compound A22]	70	70	50	40	70	70	20	20	30	–	–	–	–	–	–	–	–	–
N[C@@H](C[n+]1ccc2ccccc2n1)C(=O)[O-] [Compound A23, (2S)-2-amino-3-cinnolin-2-ium-2-yl-propanoic Acid 2,2,2-trifluoroacetate]	60	30	40	30	20	30	20	10	40	–	–	–	–	–	–	–	–	–
O=S(=O)([O-])CC[n+]1ccc2ccccc2n1 [Compound A24, 2-cinnolin-2-ium-2-ylethanesulfonate]	60	60	80	40	80	70	80	40	60	–	–	–	–	–	–	–	–	–
O=S(=O)([O-])CCCC[n+]1ccc2ccccc2n1 [Compound A25]	50	60	20	0	60	30	50	50	30	–	–	–	–	–	–	–	–	–
O=S(=O)([O-])OCC[n+]1ccc2ccccc2n1 [Compound A26]	100	70	70	30	70	90	70	60	60	–	–	–	–	–	–	–	–	–
O=S(=O)([O-])OCCC[n+]1ccc2ccccc2n1 [Compound A27]	100	90	70	50	80	60	50	40	70	–	–	–	–	–	–	–	–	–
O=S(=O)([O-])CC(O)C[n+]1ccc2ccccc2n1 (stereo not drawn) [Compound A28]	90	70	60	40	80	80	60	60	50	–	–	–	–	–	–	–	–	–
CS(=O)(=O)[N-]C(=O)CCC[n+]1ccc2ccccc2n1 [Compound A30]	70	60	20	10	20	50	10	10	20	–	–	–	–	–	–	–	–	–
O=S(=O)([O-])OC[n+]1ccc2ccccc2n1 [Compound A31, cinnolin-2-ium-2-ylmethyl hydrogen sulfate]	30	20	0	0	0	30	30	0	0	–	–	–	–	–	–	–	–	–

Reference: patent US20220046923A1, “HERBICIDAL CINNOLINIUM COMPOUNDS” (SYNGENTA CROP PROTECTION AG, priority 2018, published 2022)
